Experimental data published in publication PMC3070202 (Biochemistry, 2010).

What was measured:
[1] = target: T1, human pancreas-specific protein disulfide isomerase (PDIp) (Homo sapiens, UniProt Q13087, Q265L); assay: [3H]E2 saturation radioligand binding
T1 sequence (Q13087 153-366 Q265L limits assumed): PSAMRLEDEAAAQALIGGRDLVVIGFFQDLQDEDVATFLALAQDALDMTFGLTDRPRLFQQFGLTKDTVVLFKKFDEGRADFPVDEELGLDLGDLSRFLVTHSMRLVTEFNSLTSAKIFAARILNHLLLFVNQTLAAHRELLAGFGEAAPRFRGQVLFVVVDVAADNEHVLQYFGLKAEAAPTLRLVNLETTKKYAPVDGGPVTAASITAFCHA

[2] = target: T2, human pancreas-specific protein disulfide isomerase (PDIp) (Homo sapiens, UniProt Q13087); assay: [3H]E2 saturation radioligand binding with Scatchard plot
T2 sequence (Q13087 22-525): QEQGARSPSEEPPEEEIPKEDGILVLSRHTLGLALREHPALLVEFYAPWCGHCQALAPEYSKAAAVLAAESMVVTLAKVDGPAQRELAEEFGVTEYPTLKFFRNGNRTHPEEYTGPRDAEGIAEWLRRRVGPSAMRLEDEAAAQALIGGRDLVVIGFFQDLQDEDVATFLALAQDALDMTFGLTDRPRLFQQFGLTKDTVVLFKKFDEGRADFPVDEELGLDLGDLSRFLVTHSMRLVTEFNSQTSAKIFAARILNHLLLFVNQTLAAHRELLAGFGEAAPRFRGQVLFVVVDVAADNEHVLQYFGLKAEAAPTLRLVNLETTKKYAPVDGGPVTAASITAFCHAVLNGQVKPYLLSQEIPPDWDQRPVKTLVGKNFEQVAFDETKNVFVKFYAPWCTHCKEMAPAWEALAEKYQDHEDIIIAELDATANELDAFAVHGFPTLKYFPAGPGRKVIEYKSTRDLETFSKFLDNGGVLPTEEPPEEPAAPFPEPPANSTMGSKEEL

[3] = target: T2, human pancreas-specific protein disulfide isomerase (PDIp); assay: competition with [3H]E2 radioligand binding at […]

Kd [1] [nM] | Kd [2] [nM] | Structure (SMILES) | competition with [3H]E2 radioligand binding at 10 μM [3]
185 ± 8 | ~170 | C[C@]12CC[C@@H]3c4ccc(O)cc4CC[C@H]3[C@@H]1CC[C@@H]2O [E2, Estradiol] | –
– | – | C[C@]12CC[C@@H]3c4ccc(O)cc4CC[C@H]3[C@@H]1C[C@@H](O)[C@@H]2O [E3] | could efficiently compete with [^3H]E2 for binding to the b-b′ fragment or the full-length PDIp
